pEC50: −log10 of the molar value. Read-outs that look alike come from different tables or passages of the source.
Target: aggregated MBP-HTT(1-89)Q46-His(6×) (Exonl-Q46) protein (Q46 protein aggregates) (Homo sapiens (Human), UniProt P42858, INS38QQQQQQQQQQQQQQQQQQQQQQQQQ)
Experiment: Q46 Radioligand Binding Assay
Conditions: read-out: Q46_RBA EC50_
Method: Q46 Radioligand Binding Assay
For radioligand binding assays (RBA) MBP-HTT(1-89)Q46-His(6×) (“Exonl-Q46”) protein was generated based on a previous publication (Scherzinger et al. Cell, Vol. 90, 549-558, Aug. 8, 1997). For experiments 30 μM MBP-Exonl-Q46 was incubated with 150 μg/mL thrombin in assay buffer (150 mM NaCl, 50 mM Tris pH 8.0) and 2 mM CaCl2 for 16 hours at 37° C. Aggregated Exonl-Q46 was pelleted by centrifugation for 5 minutes at 13,000 rpm in a bench top centrifuge and re-dissolved in the same volume of assay buffer. Test compounds were prepared by titration in DMSO at 11 concentrations from 63 μM to 2 nM. For the RBA, Q46 protein aggregates and test compounds were pre-incubated in assay buffer for 20 minutes at room temperature, in 100 μL/well in a 96-well plate (pp, round bottom). Then, ligand was added in 50 μL/well and incubated for 60 minutes at 37° C. Final assay concentrations were 1 μM to 30 μM test compound, 1 μM Exonl-Q46 protein (equivalent monomer concentration) and 0.3 nM ligand [^3H3-methyl]-5-((5-methoxypyridin-2-yl)methoxy)-2-(pyrazin-2-yl)benzo[d]oxazole. Samples were transferred onto GF/B filter plates and washed 2× with 200 μL PBS using a Filtermate Harvester. After drying filter plates for 1 hour at 55° C., the back of the plates were sealed with foil and 30 μL/well scintillation fluid (Packard MicroScint 40) added, incubated for 15 minutes in the dark and counted in a MicroBeta reader. For analysis, replicate data from independent assay plates were normalized towards 0% and 100% inhibition using control wells of vehicle (0% inhibition) and 1 μM unlabelled [^3H3-methyl]-5-((5-methoxypyridin-2-yl)methoxy)-2-(pyrazin-2-yl)benzo[d]oxazole (100% inhibition). IC50 values were determined with a sigmoidal inhibition model with four variables (top, bottom, slope, IC50) in a global fit using the normalized replicate data.

[1] = same radioligand displacement on Exonl-Q46 aggregates
[2] = displacement of 0.3 nM [3H3-methyl]-5-((5-methoxypyridin-2-yl)methoxy)-2-(pyrazin-2-yl)benzo[d]oxazole from 1 μM Exonl-Q46 aggregates, method calls the values IC50

Chain of aggregated MBP-HTT(1-89)Q46-His(6×) (Exonl-Q46) protein (Q46 protein aggregates) (P42858 other isoform, or with tags, fused parts or gaps, stated change not applied): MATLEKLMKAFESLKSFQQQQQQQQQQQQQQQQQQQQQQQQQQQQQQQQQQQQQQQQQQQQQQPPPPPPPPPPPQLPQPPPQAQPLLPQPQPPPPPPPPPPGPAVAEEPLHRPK

| SMILES | pEC50 [1] | pEC50 [2] |
| --- | --- | --- |
| COc1ccc(COc2ccc3c(c2)CN(C(=O)c2ccc(OC)nc2)CC3C)nc1 (stereo not drawn) [Example 28] | > 7.00 | – |
| COc1ccc(COc2ccc3c(n2)CN(C(=O)c2ccc(OC)nc2)CC3)nc1 [Example 26, 2-[(5-Methoxypyridin-2-yl)methoxy]-7-(6-methoxypyridine-3-carbonyl)-5,6,7,8-tetrahydro-1,7-naphthyridine] | > 7.00 | 7.41 |
| COc1ccc(COc2ccc3c(c2)CN(C(=O)c2ccc(C)nc2)CC3)nc1 [Example 1.25] | > 7.00 | 8.54 |
| COc1ccc(NC(=O)N2CCc3ccccc3C2)cn1 [Example 4.1] | < 6.30 | 6.00 |
| COc1ccc(COc2ccc3c(c2)CN(c2cnn(C)c2)CC3)nc1 [Example 29, 7-[(5-Methoxypyridin-2-yl)methoxy]-2-(1-methyl-1H-pyrazol-4-yl)-1,2,3,4-tetrahydroisoquinoline] | 6.30 to 7.00 | 6.79 |
| COc1ccc(COc2ccc3c(c2)CN(c2ncc(OC)cn2)CC3)nc1 [Example 3, 7-[(5-Methoxypyridin-2-yl)methoxy]-2-(5-methoxypyrimidin-2-yl)-1,2,3,4-tetrahydroisoquinoline] | > 7.00 | 8.90 |
| COCCn1cc(C(=O)N2CCc3ncc(OCc4ccc(OC)cn4)cc3C2)ccc1=O [Example 24.4] | > 7.00 | 7.37 |
| COc1ccc(COc2ccc3c(c2)CN(C(=O)c2cncc(OC)c2)CC3)nc1 [Example 1.5] | > 7.00 | 8.25 |
| COc1ccc(COc2ccc3c(c2)CN(C(=O)c2ccc(=O)[nH]c2)CC3)nc1 [Example 39, 5-(7-((5-Methoxypyridin-2-yl)methoxy)-1,2,3,4-tetrahydroisoquinoline-2-carbonyl)pyridin-2(1H)-one] | > 7.00 | 7.92 |
| COc1ccc(COc2cnc3c(c2)CN(c2ncc(OC)cn2)CC3)nc1 [Example 6.2] | > 7.00 | 8.71 |
| COc1ccc(COc2cccc3c2CCN(C(=O)c2ccc(OC)nc2)C3)nc1 [Example 1.12] | > 7.00 | 7.47 |
| COc1ccc(COc2ccc3c(c2)CN(c2ccc(OC)nc2)C(=O)C3)nc1 [Example 10, 7-[(5-Methoxypyridin-2-yl)methoxy]-2-(6-methoxypyridin-3-yl)-1,2,3,4-tetrahydroisoquinolin-3-one] | 6.30 to 7.00 | 6.73 |
| COc1ccc(COc2ccc3c(c2)CN(C(=O)c2cnc(OC)cn2)CC3)nc1 [Example 1.8] | > 7.00 | 8.92 |
| COc1ccc(COc2cnc3c(c2)CN(C(=O)c2ccnc(OCCF)c2)CC3)nc1 [Example 1.23] | > 7.00 | 7.64 |
| COc1ccc(COc2ccc3c(c2)CN(C(=O)c2ccc(=O)n(CCF)c2)CC3)nc1 [Example 34.1] | > 7.00 | 8.29 |
| COc1ccc(C(=O)N2CCc3ccc(OCc4ccc(OCCF)cn4)cc3C2)cn1 [Example 38, (7-((5-(2-Fluoroethoxy)pyridin-2-yl)methoxy)-3,4-dihydroisoquino-lin-2(1H)-yl)(6-methoxypyridin-3-yl)methanone] | > 7.00 | 8.90 |

| SMILES | pEC50 [1] | pEC50 [2] |
| --- | --- | --- |
| COc1ccc(COc2ccc3c(c2)CN(C(=O)c2cnc(OC)nc2)CC3)nc1 [Example 1.22] | > 7.00 | 8.68 |
| COc1ccc(COc2ccc3c(c2)CN(C(=O)c2ccc(=O)n(CCCF)c2)CC3)nc1 [Example 1.19] | > 7.00 | 8.26 |
| COc1ccc(COc2ccc3c(c2)CN(C(=O)c2ccc(OC)nc2)CC3)nc1 [Example 1, 7-[(5-Methoxypyridin-2-yl)methoxy]-2-(6-methoxypyridine-3-carbonyl)-1,2,3,4-tetrahydroisoquinoline] | > 7.00 | 8.91 |
| COc1ccc(COc2ccc3c(c2)CN(Cc2ccc(OC)nc2)CC3)nc1 [Example 7] | 6.30 to 7.00 | 6.86 |
| COc1ccc(COc2ccc3c(c2)CN(C(=O)c2ccc(=O)n(C)c2)CC3)nc1 [Example 41, 5-(7-((5-Methoxypyridin-2-yl)methoxy)-1,2,3,4-tetrahydroisoquin-oline-2-carbonyl)-1-methylpyridin-2(1H)-one] | > 7.00 | 7.63 |
| COc1ccc(C(=O)N(C)c2ccc3c(c2)CN(C(=O)c2ccc(OC)nc2)CC3)nc1 [Example 13] | < 6.30 | 6.00 |
| COc1ccc(COc2ccc3c(c2)CN(C(=O)Nc2ccc(OC)nc2)CC3)nc1 [Example 4.2] | > 7.00 | 8.16 |
| COc1ccc(COc2cnc3c(c2)CN(C(=O)c2ccn(CCF)c(=O)c2)CC3)nc1 [Example 1.29] | 6.30 to 7.00 | 6.57 |
| COc1ccc(COc2ccc3c(c2)CN(c2ccc(=O)n(C)c2)CC3)nc1 [Example 29.1] | > 7.00 | 7.07 |
| COc1ccc(COc2ccc3c(c2)CN(c2ccc(OC)nc2)CC3)nc1 [Example 6] | > 7.00 | 8.65 |
| COc1ccc(COc2cnc3c(c2)CN(C(=O)c2ccc(-n4ccnc4)nc2)CC3)nc1 [Example 24, 6-[6-(1H-Imidazol-1-yl)pyridine-3-carbonyl]-3-[(5-methoxypyridin-2-yl)methoxy]-5,6,7,8-tetrahydro-1,6-naphthyridine] | > 7.00 | 8.69 |
| COc1ccc2c(c1)CN(C(=O)c1ccc(OC)nc1)CC2 [Example 1.6] | 6.30 to 7.00 | 6.48 |
| COc1ccc(OCc2cn3c(n2)CN(C(=O)c2ccc(OC)nc2)CC3)nc1 [Example 20, 5-Methoxy-2-{[7-(6-methoxypyridine-3-carbonyl)-5H,6H,7H,8H-imidazo[1,2-a]pyrazin-2-yl]methoxy}pyridine] | < 6.30 | 6.00 |
| C=CCOc1ccc(COc2ccc3c(c2)CN(C(=O)c2ccc(OC)nc2)CC3)nc1 [Example 35, (7-((5-(Allyloxy)pyridin-2-yl)methoxy)-3,4-dihydroisoquinolin-2(1H)-yl)(6-methoxypyridin-3-yl)methanone] | > 7.00 | 8.98 |
| COc1ccc(COc2ccc3c(c2)CN(C(=O)c2ccc(=O)n(CCF)n2)CC3)nc1 [Example 1.20] | > 7.00 | 8.37 |
| C=CCOc1ccc(C(=O)N2CCc3ncc(OCc4ccc(OC)cn4)cc3C2)cn1 [Example 24.1] | > 7.00 | 8.52 |

Source: patent publication US11992535B2, “Compounds and probes for imaging huntingtin protein” (CHDI Foundation, Inc., priority 2019, dated 2024)
